Calls of active or inactive are those of the source. The calls are words filed in the database; no cut-off is given here. Square brackets hold non-standard residues; d marks the D form. Peptide text beside a SMILES is read from it. * marks the point of attachment. 1Nal = N[C@@H](Cc1cccc2ccccc12)C(=O)O; Asu = N[C@@H](CCCCCC(=O)O)C(=O)O; β3hL = CC(C)C[C@H](N)CC(=O)O; Nva = CCC[C@H](N)C(=O)O; NHOH = ON*
What was measured:
Homo sapiens [1] = species: Homo sapiens; assay: Increase in SMN2 mRNA expression in induced pluripotent stem cell derived from human GM03813 cells isolated from SMA patient homozygous for deletion of exons 7 and 8 in SMN1 gene and containing 3 SMN2 gene copies at 0.1 uM by PCR assay relative to untreated control
Histone deacetylase 2 = Histone deacetylase 2 (Homo sapiens, UniProt Q92769); assay: Inhibition of HDAC2 (unknown origin)
Homo sapiens [2] = species: Homo sapiens; assay: Increase in SMN2 mRNA expression in induced pluripotent stem cell derived from human GM03813 cells isolated from SMA patient homozygous for deletion of exons 7 and 8 in SMN1 gene and containing 3 SMN2 gene copies at 1 uM by PCR assay relative to untreated control
Histone deacetylase 8 = target: T1, Histone deacetylase 8 (Homo sapiens, UniProt Q9BY41); assay: Inhibition of HDAC8 (unknown origin)
T1 sequence (Q9BY41 whole entry): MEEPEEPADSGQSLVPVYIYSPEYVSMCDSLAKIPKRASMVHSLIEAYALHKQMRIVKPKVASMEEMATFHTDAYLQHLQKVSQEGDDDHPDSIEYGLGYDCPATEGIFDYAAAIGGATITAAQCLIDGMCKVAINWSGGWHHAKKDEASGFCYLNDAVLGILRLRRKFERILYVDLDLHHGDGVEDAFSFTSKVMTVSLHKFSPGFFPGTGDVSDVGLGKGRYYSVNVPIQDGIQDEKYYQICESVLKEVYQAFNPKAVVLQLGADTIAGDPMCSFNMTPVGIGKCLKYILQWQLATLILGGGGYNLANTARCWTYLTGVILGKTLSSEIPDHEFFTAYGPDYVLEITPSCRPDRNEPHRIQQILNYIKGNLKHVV

Homo sapiens [3] = species: Homo sapiens; assay: Increase in SMN2 mRNA expression in induced pluripotent stem cell derived from human GM03813 cells isolated from SMA patient homozygous for deletion of exons 7 and 8 in SMN1 gene and containing 3 SMN2 gene copies at 0.1 to 5 uM by PCR assay relative to untreated control
[4] = Toxicity against induced pluripotent stem cell derived from human GM03813 cells isolated from SMA patient homozygous for deletion of exons 7 and 8 in SMN1 gene and containing 3 SMN2 gene copies assessed as reduction in SMN2 protein level at 10 uM; format: cell-based; settings: induced pluripotent stem cell-derived neuron
[5] = target: T2, Protein deacetylase HDAC6 (Homo sapiens, UniProt Q9UBN7); assay: Inhibition of HDAC6 (unknown origin)
T2 sequence (Q9UBN7 whole entry): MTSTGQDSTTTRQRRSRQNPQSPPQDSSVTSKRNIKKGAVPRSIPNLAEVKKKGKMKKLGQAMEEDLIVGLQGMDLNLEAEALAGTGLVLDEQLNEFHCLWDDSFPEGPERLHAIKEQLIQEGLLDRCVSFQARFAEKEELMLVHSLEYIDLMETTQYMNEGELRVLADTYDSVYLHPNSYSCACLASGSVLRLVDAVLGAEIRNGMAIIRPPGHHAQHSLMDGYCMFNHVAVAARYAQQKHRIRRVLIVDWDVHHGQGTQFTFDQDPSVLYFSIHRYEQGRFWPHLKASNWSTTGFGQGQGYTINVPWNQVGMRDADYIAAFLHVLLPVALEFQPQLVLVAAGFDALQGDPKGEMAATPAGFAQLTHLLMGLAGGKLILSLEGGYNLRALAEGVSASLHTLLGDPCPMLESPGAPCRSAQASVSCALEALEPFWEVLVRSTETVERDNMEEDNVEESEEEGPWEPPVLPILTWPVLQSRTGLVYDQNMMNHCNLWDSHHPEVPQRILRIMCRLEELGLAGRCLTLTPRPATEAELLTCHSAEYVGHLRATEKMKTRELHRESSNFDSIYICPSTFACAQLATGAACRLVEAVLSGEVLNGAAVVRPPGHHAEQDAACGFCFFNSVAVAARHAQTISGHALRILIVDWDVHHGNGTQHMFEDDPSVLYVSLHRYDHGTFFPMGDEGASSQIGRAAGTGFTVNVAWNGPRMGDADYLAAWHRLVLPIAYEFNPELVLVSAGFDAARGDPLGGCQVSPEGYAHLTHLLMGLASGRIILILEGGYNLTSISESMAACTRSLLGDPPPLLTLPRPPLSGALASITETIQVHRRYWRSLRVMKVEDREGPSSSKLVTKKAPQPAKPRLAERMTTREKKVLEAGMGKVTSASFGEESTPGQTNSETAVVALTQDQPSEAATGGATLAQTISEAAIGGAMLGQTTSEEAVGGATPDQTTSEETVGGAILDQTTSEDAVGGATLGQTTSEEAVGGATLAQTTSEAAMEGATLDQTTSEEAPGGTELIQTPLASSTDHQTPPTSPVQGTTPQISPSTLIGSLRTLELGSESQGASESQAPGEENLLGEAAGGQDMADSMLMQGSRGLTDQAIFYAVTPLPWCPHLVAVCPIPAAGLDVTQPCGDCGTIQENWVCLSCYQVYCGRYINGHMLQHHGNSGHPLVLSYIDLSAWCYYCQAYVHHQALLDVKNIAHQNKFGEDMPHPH

Homo sapiens [6] = species: Homo sapiens; assay: Increase in […] in induced pluripotent stem cell derived from human GM03813 cells isolated from SMA patient homozygous for deletion of exons 7 and 8 in SMN1 gene and containing 3 SMN2 gene copies assessed as increase in SMN protein aggregates (Gems) at 5 uM incubated for 48 hrs by confocal microscopy
Histone deacetylase 3 = Histone deacetylase 3 (Homo sapiens, UniProt O15379); assay: Inhibition of HDAC3 (unknown origin)
Sequence of Histone deacetylase 3 (O15379 whole entry): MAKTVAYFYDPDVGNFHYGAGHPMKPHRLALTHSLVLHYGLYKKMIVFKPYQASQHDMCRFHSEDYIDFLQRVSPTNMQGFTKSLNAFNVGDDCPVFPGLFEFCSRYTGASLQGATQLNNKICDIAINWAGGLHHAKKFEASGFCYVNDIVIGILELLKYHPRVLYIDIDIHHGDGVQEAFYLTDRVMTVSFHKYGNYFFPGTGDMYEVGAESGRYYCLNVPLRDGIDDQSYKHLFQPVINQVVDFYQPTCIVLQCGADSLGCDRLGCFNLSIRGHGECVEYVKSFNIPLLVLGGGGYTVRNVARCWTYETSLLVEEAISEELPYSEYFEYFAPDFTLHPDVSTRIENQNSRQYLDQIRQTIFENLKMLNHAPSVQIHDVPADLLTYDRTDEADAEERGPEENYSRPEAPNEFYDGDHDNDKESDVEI

Sequence of Histone deacetylase 2 (Q92769 whole entry): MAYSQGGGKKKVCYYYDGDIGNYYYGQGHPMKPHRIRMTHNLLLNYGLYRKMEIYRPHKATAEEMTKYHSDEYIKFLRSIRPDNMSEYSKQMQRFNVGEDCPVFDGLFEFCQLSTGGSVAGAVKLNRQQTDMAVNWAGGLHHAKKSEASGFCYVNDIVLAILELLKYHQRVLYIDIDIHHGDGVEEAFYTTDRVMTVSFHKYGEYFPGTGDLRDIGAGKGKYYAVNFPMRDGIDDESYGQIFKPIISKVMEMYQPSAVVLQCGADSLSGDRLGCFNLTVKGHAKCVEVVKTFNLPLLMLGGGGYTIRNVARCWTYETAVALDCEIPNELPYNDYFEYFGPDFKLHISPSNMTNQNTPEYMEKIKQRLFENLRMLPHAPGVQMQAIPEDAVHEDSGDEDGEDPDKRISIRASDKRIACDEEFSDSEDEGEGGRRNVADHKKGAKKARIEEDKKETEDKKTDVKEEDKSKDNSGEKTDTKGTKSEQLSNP

Structure (SMILES) | fold change (FC) (Homo sapiens [1]) | IC50 (Histone deacetylase 2) [nM] | fold change (FC) (Homo sapiens [2]) | also measured
CCC(=O)CCCCC[C@@H]1NC(=O)[C@@H](C)n2nncc2[C@H](CC(C)C)NC(=O)[C@H](Cc2c[nH]c3ccccc23)NC1=O | 0.9 | – | 0.9 to 1.1 | IC50 (Histone deacetylase 8): 110 nM
CC(C)C[C@H]1CC(=O)N[C@@H](C)C(=O)N[C@@H](CCCCCC(=O)NO)C(=O)N[C@@H](Cc2c[nH]c3ccccc23)C(=O)N1 (cyclo([Asu](NHOH)W[β3hL]A)) | 1.4 to 2.2 | 5 | 2 to 3 | –
CCC[C@@H]1NC(=O)[C@H](C)NC(=O)C[C@H](CC(C)C)NC(=O)[C@H](Cc2cn(CN(C)C)c3ccccc23)NC1=O | – | – | 1.5 to 1.8 | –
CCC(=O)CCCCC[C@@H]1NC(=O)[C@H](CCCCNC(C)=O)NC(=O)C[C@H](CC(C)C)NC(=O)[C@H](Cc2c[nH]c3ccccc23)NC1=O | 1 to 1.5 | – | 2.7 to 3.2 | Activity (Homo sapiens [3]): Dose-dependent effect; Activity [4]: Toxic; IC50 [5]: > 10000 nM; Activity (Homo sapiens [6]): Active
CCC(=O)CCCCC[C@@H]1NC(=O)[C@H](C)NC(=O)C[C@H](CC(C)C)NC(=O)[C@H](Cc2cccc3ccccc23)NC1=O | – | – | 0.6 to 0.8 | –
CCC[C@@H]1NC(=O)[C@H](C)NC(=O)C[C@H](CC(C)C)NC(=O)[C@H](Cc2c[nH]c3ccccc23)NC1=O (cyclo(A[Nva]W[β3hL])) | – | 1580 | 0.7 to 0.8 | IC50 (Histone deacetylase 3): 1440 nM
CC(C)C[C@H]1CC(=O)N[C@@H](C)C(=O)N[C@@H](CCCCCC(=O)O)C(=O)N[C@@H](Cc2cccc3ccccc23)C(=O)N1 (cyclo([Asu][1Nal][β3hL]A)) | 1.1 to 1.6 | – | 1.4 to 1.5 | –

Further lines, with some results ahead:

fold change (FC) (Homo sapiens [1]) | IC50 (Histone deacetylase 2) [nM] | fold change (FC) (Homo sapiens [2]) | Structure (SMILES) | also measured
1 to 1.4 | 40 | 1.2 to 2 | CCC(=O)CCCCC[C@@H]1NC(=O)[C@@H]2CCCN2C(=O)C[C@H](CC(C)C)NC(=O)[C@H](Cc2c[nH]c3ccccc23)NC1=O | IC50 (Histone deacetylase 8): 1500 nM
1.2 to 1.3 | 32 | 2.1 to 2.4 | CC(C)C[C@H]1CC(=O)N[C@@H](C)C(=O)N[C@@H](CCCCCC(=O)C(F)(F)F)C(=O)N[C@@H](Cc2c[nH]c3ccccc23)C(=O)N1 | IC50 [5]: 2800 nM
0.6 to 1 | – | 0.8 to 1.4 | CCC(=O)CCCCC[C@@H]1NC(=O)[C@H](Cc2ccccc2)NC(=O)C[C@H](CC(C)C)NC(=O)[C@H](Cc2c[nH]c3ccccc23)NC1=O | –
1 | – | 0.6 to 1.1 | CC(C)C[C@H]1CC(=O)N[C@@H](CCCCN)C(=O)N[C@@H](CCCCCC(=O)O)C(=O)N[C@@H](Cc2cccc3ccccc23)C(=O)N1 (cyclo([Asu][1Nal][β3hL]K)) | –
1 to 1.5 | – | 2.7 to 3.6 | CC(C)C[C@H]1CC(=O)N[C@@H](Cc2ccccc2)C(=O)N[C@@H](CCCCCC(=O)NO)C(=O)N[C@@H](Cc2c[nH]c3ccccc23)C(=O)N1 (cyclo([Asu](NHOH)W[β3hL]F)) | –

From ChEMBL document CHEMBL4052703, “Cyclic tetrapeptide HDAC inhibitors as potential therapeutics for spinal muscular atrophy: Screening with iPSC-derived neuronal cells” (Bioorg Med Chem Lett, 2017)
